Test results as given in article PMC12977544, “Phenotypic high-throughput screening identifies modulators of gut microbial choline metabolism” (mBio, 2026).

Experiments:
[1] = test system: Clostridium sporogenes ATCC 15579; assay: TMA inhibition in bacterial whole cells (LC–MS/MS of d9-TMA from d9-choline); format: cell-based; settings: Clostridium sporogenes, ATCC15579, 1.25 h; 1 mM d9-choline in PBS, 75 min, 37°C, anaerobic
Description: (§1) For TMA inhibition assays, E. coli and P. mirabilis were grown in NCE medium supplemented with 20 mM choline chloride, A. hydrogenalis was grown in MEGA medium supplemented with 3 mM choline chloride, and C. sporogenes was grown in BHI medium supplemented with 20 mM of choline chloride to induce expression of the cut gene cluster. For MIC assays, all bacteria strains were grown in MEGA medium.
(§2) Compounds were stored as 10 mM DMSO stocks at –20°C and diluted in DMSO to prepare varying concentrations of inhibitors for testing. Bacteria were grown anaerobically overnight in media supplemented with choline as described above. Cells were pelleted and resuspended in PBS, and d9-choline chloride was added to a final concentration of 1 mM. The final OD600 of the PBS cell resuspensions is as follows: 0.4 (E. coli), 0.15–0.2 (P. mirabilis), 0.2 (C. sporogenes), and 0.4 (A. hydrogenalis). The resuspended cells were added to 96-well plates containing inhibitors (final concentration of 1% DMSO, with final inhibitor concentrations ranging between 0 and 325 µM). The plates were sealed and incubated for 75 min (or 90 min for P. mirabilis) at 37°C. Following incubation, the plates were removed from the anaerobic chamber and analyzed immediately or kept at –20°C until LC–MS/MS analysis. Each inhibitor concentration was tested in triplicate. EC50 values were calculated with GraphPad Prism by fitting the log(inhibitor) vs response—Variable slope (four-parameter) model for non-linear regression.
(§3) Samples were kept frozen until analysis and kept cold on ice during handling due to the volatility of TMA. Bacterial cell resuspensions in PBS were diluted 100-fold in LCMS-grade acetonitrile with 0.1% formic acid to lyse cells, precipitate proteins, and extract metabolites. Samples were centrifuged at 4,000 rpm for 10 min at 4°C to pellet proteins. The supernatants were then further diluted 20-fold in LCMS-grade acetonitrile with 0.1% formic acid, and the resulting solution was analyzed by LC–MS/MS.
(§4) LC–MS/MS analysis was performed on an Agilent 1290/6470 Triple Quadrupole LC–MS instrument (Agilent Technologies) using electrospray ionization. The mass spectrometer was operated in multiple reaction monitoring (MRM) mode with positive ionization monitoring. The precursor–product ion pairs used in MRM mode were as follows: m/z 69.1m/z → 49.1 (d9-TMA) and m/z 113.2 m/z → 69.1 (d9-choline). The capillary voltage was set to 4.0 kV, and the fragmentor voltage was set to 30 V (d9-TMA) and 115 V (d9-choline). The collision energy for the precursor–product ion pairs was set to 29 V (d9-TMA) and 21 V (d9-choline). MS^1 resolution was set to wide and MS^2 resolution to unit. The drying gas temperature was maintained at 250°C, with a flow rate of 11 L/min and a nebulizer pressure of 45 psi. The time filter width used was 0.07 min. The injection volume of all samples was 1 μL. Samples were injected onto InfinityLab Poroshell 120 (Agilent) HILIC columns (2.7 μm, 100 mm × 2.1 mm, 100 Å) preceded by InfinityLab Poroshell 120 HILIC guard columns (2.1 mm, 1.9µm UHPLC guard). The LC conditions on the binary pump were as follows: a gradient of 5–35% A increasing over 1.95 min (1.2 mL/min), a gradient of 35–5% A decreasing over 0.05 min (1.6 mL/min), and held at 5% A for 0.5 min (2 mL/min). […] Solvent A was 10 mM ammonium formate with 0.1% formic acid, and solvent B was acetonitrile with 0.1% formic acid. Data analysis was performed with Mass Hunter Workstation Data Acquisition and Qualitative Analysis software (Agilent Technologies).

[2] = test system: Anaerococcus hydrogenalis DSM 7454; assay: as above; format: cell-based; settings: 1 mM d9-choline in PBS, 75 min, 37°C, anaerobic; for EC50: Anaerococcus hydrogenalis, DSM7454, 1.25 h
Description: as §1, §2, §3, §4

[3] = test system: Proteus mirabilis ATCC 29906; assay: as above; format: cell-based; settings: Proteus mirabilis, ATCC29906, 1.5 h; 1 mM d9-choline in PBS, 90 min, 37°C, anaerobic; read-out: EC50 in whole cells, P. mirabilis (TMA inhibition)
Description: as §1, §2, §3, §4

E. coli MS 200-1 = assay: MIC in MEGA medium; format: cell-based, Escherichia coli MS 200-1; settings: Escherichia coli, MS2001; anaerobic, 37°C, 24 h, up to 200 µM
Description: as §1

[4] = target: T1, purified CutC (choline trimethylamine-lyase) (Oleidesulfovibrio alaskensis, UniProt Q30W70); assay: In vitro CutC activity assay coupled to YADH/NADH (absorbance 340 nm); format: biochemical, Desulfovibrio desulfuricans G20; settings: 5 nM CutC, 200 µM choline, 20°C, anaerobic
T1 construct: made in house
T1 sequence (Q30W70 53-846): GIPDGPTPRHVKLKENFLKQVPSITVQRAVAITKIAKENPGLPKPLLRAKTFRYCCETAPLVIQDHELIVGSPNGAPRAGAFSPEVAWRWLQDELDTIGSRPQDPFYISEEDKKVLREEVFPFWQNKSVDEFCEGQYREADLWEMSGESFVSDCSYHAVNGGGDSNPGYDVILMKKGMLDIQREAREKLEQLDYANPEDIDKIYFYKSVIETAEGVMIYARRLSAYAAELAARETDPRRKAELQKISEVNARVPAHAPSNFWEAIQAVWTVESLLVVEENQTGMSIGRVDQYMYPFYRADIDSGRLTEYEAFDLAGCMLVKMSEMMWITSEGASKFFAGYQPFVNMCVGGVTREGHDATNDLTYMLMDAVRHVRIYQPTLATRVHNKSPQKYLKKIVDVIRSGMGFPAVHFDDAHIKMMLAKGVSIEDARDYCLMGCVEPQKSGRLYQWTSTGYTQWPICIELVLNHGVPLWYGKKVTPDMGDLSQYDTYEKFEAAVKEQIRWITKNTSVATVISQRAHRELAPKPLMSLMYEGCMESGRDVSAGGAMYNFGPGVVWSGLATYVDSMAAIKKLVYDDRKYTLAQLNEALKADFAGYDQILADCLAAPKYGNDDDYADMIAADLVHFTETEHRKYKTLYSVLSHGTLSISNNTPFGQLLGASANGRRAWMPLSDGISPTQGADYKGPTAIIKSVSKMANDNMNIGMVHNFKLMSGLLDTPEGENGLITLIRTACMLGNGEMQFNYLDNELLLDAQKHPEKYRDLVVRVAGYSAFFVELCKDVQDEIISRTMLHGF
Description: To investigate if our compounds were inhibiting CutC directly, we tested their activity toward the purified enzyme. The activity of CutC was determined using a coupled enzyme assay, where the acetaldehyde product from the cleavage of choline to TMA is reduced to ethanol by yeast alcohol dehydrogenase (YADH) using nicotinamide adenine dinucleotide (NADH) as a cofactor. The consumption of NADH results in a change in absorption at 340 nm, and this rate of change of absorption was used to calculate the initial rates of reaction of CutC in the presence of varying concentrations of inhibitors ([14], [65]).
CutC and CutD enzymes from Desulfovibrio desulfuricans G20 were purified, CutC was activated by incubation with CutD, and the amount of glycyl radical installation was quantified as previously described ([15]). The IC50 of compounds was determined in an in vitro CutC activity assay, where CutC activity is coupled to the NADH-dependent enzymatic reduction of acetaldehyde by YADH ([15]). Briefly, assays were conducted in an anaerobic chamber (MBraun) under N2 atmosphere at 20°C. In 50 mM potassium phosphate buffer (pH 8.0, 50 mM KCl), 40 µM of CutD and 150 µM of sodium dithionite were incubated for 20 min before the addition of 200 µM of SAM and 20 µM of CutC monomer. The mixture was incubated for 1 h to activate the glycyl radical enzyme, after which the activated CutC mixture was diluted […] in 50 mM potassium phosphate buffer (pH 8.0, 50 mM KCl). A master mix containing 200 µM NADH, 0.4 µM YADH (Sigma), and the diluted CutC mixture (5 nM final concentration in assay) was prepared and aliquoted into 96-well plates (180 µL per well). Ten microliters of inhibitor or DMSO vehicle was added, followed by 10 µL of aqueous choline chloride solution (final concentration 200 µM). Absorbance was measured at 340 nm immediately after addition of all assay components, with measurements taken every 20 s for 10 min. Initial rates were calculated from absorbance measurements and fitted to Michaelis–Menten equation using nonlinear regression in GraphPad Prism 10 (v. 10.4.0). Background activity was subtracted using no substrate controls, and initial rates for each inhibitor concentration were normalized to no inhibitor controls. IC50 values were obtained by plotting normalized activity values against the logarithm of inhibitor concentration and fitting to a nonlinear regression model in GraphPad Prism 10 (v. 10.4.0).

| Compound | EC50 [1] | EC50 in whole cells, A. hydrogenalis (TMA inhibition) [2] | EC50 [3] | EC50 [2] | MIC (E. coli MS 200-1) | IC50 [4] |
| --- | --- | --- | --- | --- | --- | --- |
| Cc1ccc(-c2cc(C(=O)NCCCN3CCc4ccccc4C3)c(C)[nH]2)cc1C [Compound 5] | 28 µM | No inhibition | 33 µM | – | – | – |
| Cc1ccc(-c2cc(C(=O)NCCCN3CCC(C)CC3)c(C)[nH]2)cc1C [Compound 6] | 132 µM | – | 48 µM | 31 µM | > 200 µM | 48 µM |
| Cc1ccc(-c2cc(C(=O)NCCCCCN3CCCCCC3)c(C)[nH]2)cc1C [Compound 45] | 14 µM | – | 7 µM | 18 µM | > 200 µM | 17 µM |
